In patent US6365753B1, “Phthalimides and herbicide containing the same as active component” (Mitsubishi Chemical Corporation, priority 1998, dated 2002):

Columns and labels:
Type in all cases: in vivo
Echinochloa crus-galli [1] = test: Foliar treatment test (1) post-emergence application; details: foliar treatment post-emergence at 1.0- to 2.0-leaf stage, 10 g/a active ingredient, 21st day from treatment; herbicidal index; also: ranges in brackets are in %
Method: (§1) Volcanic ash soil from a field was put in a resin-made pot having an area of 200 cm^2. After fertilization, the seeds of Brassica juncea, Ipomoea purpurea, Echinochloa crus-galli and Alopeculus aequalis were cast on the soil and uniformly covered with the soil.
(§2) Cultivation was continued in a greenhouse, and when the weeds reached the 1.0- to 2.0-leaf stage, a prescribed amount of the emulsifiable concentrate comprising the compound of the invention as an active ingredient which was prepared in Formulation Example 3 as diluted with water was sprayed uniformly to the weeds by means of a small-sized power pressure spray to give 10 g of the active ingredient per are.
(§3) Thereafter, cultivation was further continued in the greenhouse, and the herbicidal effect was examined on the 21st day from the treatment. The results obtained are shown in Table 6 (the compound numbers in Table 6 correspond to those in Tables 1 and 2). The herbicidal effect was evaluated based on the same criteria as in Test Example 1.

Alopeculus aequalis = test: as above; details: foliar treatment post-emergence at 1.0- to 2.0-leaf stage, 10 g/a active ingredient, 21st day from treatment; herbicidal index; also: ranges in brackets are in %
Method: as §1, §2, §3

Ipomoea purpurea = test: as above; details: foliar treatment post-emergence at 1.0- to 2.0-leaf stage, 10 g/a active ingredient, 21st day from treatment; herbicidal index; also: ranges in brackets are in %
Method: as §1, §2, §3

Brassica juncea [2] = test: as above; details: foliar treatment post-emergence at 1.0- to 2.0-leaf stage, 10 g/a active ingredient, 21st day from treatment; herbicidal index
Method: as §1, §2, §3

Chenopodium album = test: Soil treatment test pre-emergence application; details: 10 g/a active ingredient, 28th day from treatment, herbicidal index; also: ranges in brackets are in %
Method: (§4) Volcanic ash soil from a field was put in a resin-made pot having an area of 200 cm^2. After fertilization, soil previously mixed uniformly with the seeds of Digitaria ciliaris, Setaria viridis, Chenopodium album and Polygonum lapathifolium was scattered on the soil. The emulsifiable concentrate comprising the compound of the invention as an active ingredient which was obtained in Formulation Example 3 was diluted with water, and a prescribed amount of the diluted composition was sprayed uniformly to the surface of the soil by means of a small-sized power pressure spray to give 10 g of the active ingredient per are.
as §3, with “was” for “was further”, “in a” for “in the”, “the 28th” for “the 21st”, “Table 5” for “Table 6”

Polygonum lapathifolium = test: Soil treatment test pre-emergence application; details: 10 g/a active ingredient, 28th day from treatment, herbicidal index; also: ranges in brackets are in %
Method: as §4
as §3, with “was” for “was further”, “in a” for “in the”, “the 28th” for “the 21st”, “Table 5” for “Table 6”

Setaria viridis = test: Soil treatment test pre-emergence application; details: 10 g/a active ingredient, 28th day from treatment, herbicidal index; also: ranges in brackets are in %
Method: as §4
as §3, with “was” for “was further”, “in a” for “in the”, “the 28th” for “the 21st”, “Table 5” for “Table 6”

Digitaria ciliaris = test: Soil treatment test pre-emergence application; details: 10 g/a active ingredient, 28th day from treatment, herbicidal index; also: ranges in brackets are in %
Method: as §4
as §3, with “was” for “was further”, “in a” for “in the”, “the 28th” for “the 21st”, “Table 5” for “Table 6”

Rotala indica = test: Submerged treatment test; details: 10 g/a active ingredient, treated 5th day from sowing, examined on the 2.8th day from treatment, herbicidal index; also: ranges in brackets are in %
Method: (§5) Alluvial soil from a paddy field was put in a resin-made pot having an area of 200 cm^2. After fertilization, an adequate amount of water was added, and the soil was puddled and leveled. Seeds of Echinochloa crus-galli, Monochoria vaginalis, Rotala indica and Scirpus juncoides were sowed within a layer 0.5 cm below the surface of the soil. Water was poured onto the soil to keep a water depth of 3.5 cm.
(§6) On the 5th day from the sowing, the emulsifiable concentrate containing the compound of the invention as an active ingredient which was prepared in Formulation Example 3 was diluted with water. A prescribed amount of the diluted composition was dropped to the water so as to give 10 g of the active ingredient per are.
(§7) Cultivation was continued in a greenhouse, and the herbicidal effect was examined on the […] from the treatment. The results obtained are shown in Table 4 (the compound numbers in Table 4 correspond to those in Tables 1 and 2). The herbicidal effect was evaluated in terms of herbicidal index based on Y(%) obtained from equation:
(§8) y=[1−(Weight of weeds above the ground in a treated pot)/(Weight of weeds above the ground in a non-treated pot)]×100 (%)

Monochoria vaginalis = test: Submerged treatment test; details: 10 g/a active ingredient, treated 5th day from sowing, examined on the 2.8th day from treatment, herbicidal index; also: ranges in brackets are in %
Method: as §5, §6, §7, §8

Echinochloa crus-galli [3] = test: Submerged treatment test; details: 10 g/a active ingredient, treated 5th day from sowing, examined on the 2.8th day from treatment, herbicidal index; also: ranges in brackets are in %
Method: as §5, §6, §7, §8

Scirpus juncoides = test: Submerged treatment test; details: 10 g/a active ingredient, treated 5th day from sowing, examined on the 2.8th day from treatment, herbicidal index; also: ranges in brackets are in %
Method: as §5, §6, §7, §8

wheat = test: Foliar treatment test (3) post emergence application, crop injury; details: 3.0 to 4.0-leaf stage, 0.125% X-77, 21st day, index
Method: (§9) Volcanic ash soil from a field was put in a resin-made pot having an area of 200 cm^2. After fertilization, the seeds of Galim spurium, Brassica juncea, and wheat were cast on the soil and covered with the soil uniformly. Cultivation was continued in a greenhouse until the plants reached to the 3.0 to 4.0-leaf stage.
(§10) The emulsifiable concentrate comprising compound No. 5 of the present invention, comparative compound (B) or comparative compound (C) as an active ingredient which was prepared in accordance with Formulation Example 3 was diluted with water containing 0.125% of a spreading agent X-77 (trade name, Valent USA Co.) so that a spray of 250 L/ha might give a prescribed amount of the active ingredient. The diluted composition was uniformly sprayed to the Galium spurium plant, the Brassica juncea plant, and the wheat plant by means of a small-sized power pressure spray.
(§11) Thereafter, cultivation was continued in the greenhouse, and the herbicidal effect and the injury to the crop were examined on the 21st day from the treatment. The herbicidal effect and the injury to the crop were evaluated on the same criteria as in Test Example 4.

Galium spurium = test: Foliar treatment test (3) post emergence application; details: 3.0 to 4.0-leaf stage, 0.125% X-77, 21st day, index
Method: as §9, §10, §11

Brassica juncea [4] = test: as above; details: 3.0 to 4.0-leaf stage, 0.125% X-77, 21st day, index
Method: as §9, §10, §11

CC(C)CNC(=O)C(Cl)Cc1cc(N2C(=O)c3ccccc3C2=O)c(F)cc1Cl (centres unmarked) [Compound 11]
Herbicidal Effect Echinochloa crus-galli (Echinochloa crus-galli [1]): 4 (71-90)
Herbicidal Effect Alopeculus sequalis (Alopeculus aequalis): 4 (71-90)
Herbicidal Effect Ipompoea-purpurea (Ipomoea purpurea): 5 (91-100)
Herbicidal Effect Brassica juncea (Brassica juncea [2]): 5 (91-100)
Herbicidal Effect Chenopodium album (Chenopodium album): 5 (91-100)
Herbicidal Effect Polygonum lapathifolium (Polygonum lapathifolium): 5 (91-100)
Herbicidal Effect Setaria viridis (Setaria viridis): 4 (71-90)
Herbicidal Effect Digitaria ciliaris (Digitaria ciliaris): 4 (71-90)

CCOC(=O)/C=C/c1cc(N2C(=O)c3ccccc3C2=O)c(F)cc1Cl [Compound 17, Ethyl 3-(2-Chloro-4-fluoro-5-phthalimidophenyl)acrylate]
Herbicidal Effect Echinochloa crus-galli (Echinochloa crus-galli [1]): 1 (6-30)
Herbicidal Effect Alopeculus sequalis (Alopeculus aequalis): 1 (6-30)
Herbicidal Effect Ipompoea-purpurea (Ipomoea purpurea): 5 (91-100)
Herbicidal Effect Brassica juncea (Brassica juncea [2]): 5 (91-100)

CCCCOC(=O)C(Cl)Cc1cc(N2C(=O)c3ccccc3C2=O)c(F)cc1Cl (centres unmarked) [Compound 8]
Herbicidal Effect Rotala indica (Rotala indica): 5 (91-100)
Herbicidal Effect Monochoria vaginalis (Monochoria vaginalis): 5 (91-100)
Herbicidal Effect Echinochloa crus-galli (Echinochloa crus-galli [3]): 5 (91-100)
Herbicidal Effect Scirpus juncoides (Scirpus juncoides): 5 (91-100)
Herbicidal Effect Echinochloa crus-galli (Echinochloa crus-galli [1]): 1 (6-30)
Herbicidal Effect Alopeculus sequalis (Alopeculus aequalis): 1 (6-30)
Herbicidal Effect Ipompoea-purpurea (Ipomoea purpurea): 5 (91-100)
Herbicidal Effect Brassica juncea (Brassica juncea [2]): 5 (91-100)

COC(=O)C=Cc1cc(N2C(=O)c3ccccc3C2=O)c(F)cc1Cl [Compound 16]
Herbicidal Effect Echinochloa crus-galli (Echinochloa crus-galli [1]): 3 (51-70)
Herbicidal Effect Alopeculus sequalis (Alopeculus aequalis): 1 (6-30)
Herbicidal Effect Ipompoea-purpurea (Ipomoea purpurea): 5 (91-100)
Herbicidal Effect Brassica juncea (Brassica juncea [2]): 5 (91-100)

O=C(O)C(Cl)Cc1cc(N2C(=O)c3ccccc3C2=O)c(F)cc1Cl (centres unmarked) [Compound 3, 2-Chloro-3-(2-chloro-4-fluoro-5-pthalimidophenyl)propionic Acid]
Herbicidal Effect Echinochloa crus-galli (Echinochloa crus-galli [1]): 1 (6-30)
Herbicidal Effect Alopeculus sequalis (Alopeculus aequalis): 1 (6-30)
Herbicidal Effect Ipompoea-purpurea (Ipomoea purpurea): 5 (91-100)
Herbicidal Effect Brassica juncea (Brassica juncea [2]): 5 (91-100)
Herbicidal Effect Chenopodium album (Chenopodium album): 5 (91-100)
Herbicidal Effect Polygonum lapathifolium (Polygonum lapathifolium): 5 (91-100)
Herbicidal Effect Setaria viridis (Setaria viridis): 0 (0-5)
Herbicidal Effect Digitaria ciliaris (Digitaria ciliaris): 0 (0-5)

CCOC(=O)C(Cl)Cc1cc(-n2nc(C)n(C(F)F)c2=O)c(F)cc1Cl (centres unmarked) [Comparative Compound (C), Carfentrazone-ethyl]
Crop Injury Wheat (wheat; 12.5 ga.i./ha): 3 (20-29)
Crop Injury Wheat (wheat; 25.0 ga.i./ha): 4 (30-39)
Crop Injury Wheat (wheat; 50.0 ga.i./ha): 6 (60-69)
Herbicidal Effect Galium spurium (Galium spurium; 12.5 ga.i./ha): 10 (100)
Herbicidal Effect Galium spurium (Galium spurium; 25.0 ga.i./ha): 10 (100)
Herbicidal Effect Galium spurium (Galium spurium; 50.0 ga.i./ha): 10 (100)
Herbicidal Effect Brassica juncea (Brassica juncea [4]; 12.5 ga.i./ha): 9 (90-99)
Herbicidal Effect Brassica juncea (Brassica juncea [4]; 25.0 ga.i./ha): 10 (100)
Herbicidal Effect Brassica juncea (Brassica juncea [4]; 50.0 ga.i./ha): 10 (100)

CCO/N=C(/COc1cc(N2C(=O)c3ccccc3C2=O)c(F)cc1Cl)C(=O)OCC [Comparative Compound (B)]
Crop Injury Wheat (wheat; 12.5 ga.i./ha): 3 (20-29)
Crop Injury Wheat (wheat; 25.0 ga.i./ha): 3 (20-29)
Crop Injury Wheat (wheat; 50.0 ga.i./ha): 4 (30-39)
Herbicidal Effect Galium spurium (Galium spurium; 12.5 ga.i./ha): 9 (90-99)
Herbicidal Effect Galium spurium (Galium spurium; 25.0 ga.i./ha): 9 (90-99)
Herbicidal Effect Galium spurium (Galium spurium; 50.0 ga.i./ha): 10 (100)
Herbicidal Effect Brassica juncea (Brassica juncea [4]; 12.5 ga.i./ha): 9 (90-99)
Herbicidal Effect Brassica juncea (Brassica juncea [4]; 25.0 ga.i./ha): 10 (100)
Herbicidal Effect Brassica juncea (Brassica juncea [4]; 50.0 ga.i./ha): 10 (100)

CCOC(=O)C(Cl)Cc1cc(N2C(=O)c3ccccc3C2=O)c(F)cc1Cl (centres unmarked) [Compound 5, ethyl 2-chloro-3-(2-chloro-4-fluoro-5-phthalimidophenyl)propionate]
Herbicidal Effect Rotala indica (Rotala indica): 5 (91-100)
Herbicidal Effect Monochoria vaginalis (Monochoria vaginalis): 5 (91-100)
Herbicidal Effect Echinochloa crus-galli (Echinochloa crus-galli [3]): 4 (71-90)
Herbicidal Effect Scirpus juncoides (Scirpus juncoides): 4 (71-90)
Herbicidal Effect Echinochloa crus-galli (Echinochloa crus-galli [1]): 3 (51-70)
Herbicidal Effect Alopeculus sequalis (Alopeculus aequalis): 1 (6-30)
Herbicidal Effect Ipompoea-purpurea (Ipomoea purpurea): 5 (91-100)
Herbicidal Effect Brassica juncea (Brassica juncea [2]): 5 (91-100)
Crop Injury Wheat (wheat; 12.5 ga.i./ha): 0 (0)
Crop Injury Wheat (wheat; 25.0 ga.i./ha): 0 (0)
Crop Injury Wheat (wheat; 50.0 ga.i./ha): 1 (1-9)
Herbicidal Effect Galium spurium (Galium spurium; 12.5 ga.i./ha): 10 (100)
Herbicidal Effect Galium spurium (Galium spurium; 25.0 ga.i./ha): 10 (100)
Herbicidal Effect Galium spurium (Galium spurium; 50.0 ga.i./ha): 10 (100)
Herbicidal Effect Brassica juncea (Brassica juncea [4]; 12.5 ga.i./ha): 10 (100)
Herbicidal Effect Brassica juncea (Brassica juncea [4]; 25.0 ga.i./ha): 10 (100)
Herbicidal Effect Brassica juncea (Brassica juncea [4]; 50.0 ga.i./ha): 10 (100)

O=C(OC1CCCC1)C(Cl)Cc1cc(N2C(=O)c3ccccc3C2=O)c(F)cc1Cl (centres unmarked) [Compound 9]
Herbicidal Effect Rotala indica (Rotala indica): 5 (91-100)
Herbicidal Effect Monochoria vaginalis (Monochoria vaginalis): 5 (91-100)
Herbicidal Effect Echinochloa crus-galli (Echinochloa crus-galli [3]): 5 (91-100)
Herbicidal Effect Scirpus juncoides (Scirpus juncoides): 5 (91-100)
Herbicidal Effect Echinochloa crus-galli (Echinochloa crus-galli [1]): 2 (31-50)
Herbicidal Effect Alopeculus sequalis (Alopeculus aequalis): 1 (6-30)
Herbicidal Effect Ipompoea-purpurea (Ipomoea purpurea): 5 (91-100)
Herbicidal Effect Brassica juncea (Brassica juncea [2]): 5 (91-100)

COC(=O)C(Cl)Cc1cc(N2C(=O)c3ccc(F)cc3C2=O)ccc1Cl (centres unmarked) [Compound 2]
Herbicidal Effect Echinochloa crus-galli (Echinochloa crus-galli [1]): 2 (31-50)
Herbicidal Effect Alopeculus sequalis (Alopeculus aequalis): 1 (6-30)
Herbicidal Effect Ipompoea-purpurea (Ipomoea purpurea): 5 (91-100)
Herbicidal Effect Brassica juncea (Brassica juncea [2]): 5 (91-100)

COC(=O)C(Cl)Cc1cc(N2C(=O)c3ccccc3C2=O)ccc1Cl (centres unmarked) [Compound 1]
Herbicidal Effect Echinochloa crus-galli (Echinochloa crus-galli [1]): 1 (6-30)
Herbicidal Effect Alopeculus sequalis (Alopeculus aequalis): 1 (6-30)
Herbicidal Effect Ipompoea-purpurea (Ipomoea purpurea): 5 (91-100)
Herbicidal Effect Brassica juncea (Brassica juncea [2]): 5 (91-100)

COC(=O)C(Cl)Cc1cc(N2C(=O)c3ccccc3C2=O)c(F)cc1Cl (centres unmarked) [Compound 4, Methyl 2-Chloro-3-(2-chloro-4-fluoro-5-phthalimidophenyl)propionate]
Herbicidal Effect Echinochloa crus-galli (Echinochloa crus-galli [1]): 2 (31-50)
Herbicidal Effect Alopeculus sequalis (Alopeculus aequalis): 1 (6-30)
Herbicidal Effect Ipompoea-purpurea (Ipomoea purpurea): 5 (91-100)
Herbicidal Effect Brassica juncea (Brassica juncea [2]): 5 (91-100)
Herbicidal Effect Chenopodium album (Chenopodium album): 5 (91-100)
Herbicidal Effect Polygonum lapathifolium (Polygonum lapathifolium): 5 (91-100)
Herbicidal Effect Setaria viridis (Setaria viridis): 0 (0-5)
Herbicidal Effect Digitaria ciliaris (Digitaria ciliaris): 0 (0-5)

CCCNC(=O)C(Cl)Cc1cc(N2C(=O)c3ccccc3C2=O)c(F)cc1Cl (centres unmarked) [Compound 10, 2-Chloro-3-(2-chloro-4-fluoro-5-phthalimidophenyl)-N-propylpropionamide]
Herbicidal Effect Echinochloa crus-galli (Echinochloa crus-galli [1]): 4 (71-90)
Herbicidal Effect Alopeculus sequalis (Alopeculus aequalis): 3 (51-70)
Herbicidal Effect Ipompoea-purpurea (Ipomoea purpurea): 5 (91-100)
Herbicidal Effect Brassica juncea (Brassica juncea [2]): 5 (91-100)
